Data as given in patent US11370798B2 (Vertex Pharmaceuticals Incorporated, priority 2012, dated 2022).

Test system: HCT116 colorectal cancer cells
Experiment: Cisplatin sensitization assay (96 h cell viability MTS);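 further: Test-compound concentration that lowers the Cisplatin IC50 by a set fold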
Assay type: cell-based
Details: compound and Cisplatin added simultaneously, Cisplatin sensitization value
Outline: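 Compound and cisplatin added together as a full matrix of 2-fold serial dilutions from a top final concentration of 10 μM; cells incubated 96 h at 37° C, 5% CO2. Viability then read by MTS after 1 h further incubation; sensitization value reported in μM bins.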

Q: How did the “Cisplatin Sensitization Assay” value turn out when `Nc1nn2cc(F)cnc2c1C(=O)Nc1cnccc1O[C@H]1CCCNC1` [I-O-85, (S)-2-amino-6-fluoro-N-(4-(piperidin-3-yloxy)pyridin-3-yl)pyrazolo[1,5-a]pyrimidine-3-carboxamide] was run?
A: The value was “+++ (Cisplatin sensitization value of <0.02 μM)”.

Q: How did the “Cisplatin Sensitization Assay” value turn out when `N#CCc1cnc2c(C(=O)Nc3cnccc3O[C@H]3CCNC3)c(N)nn2c1` [I-O-86, (S)-2-amino-6-(cyanomethyl)-N-(4-(pyrrolidin-3-yloxy)pyridin-3-yl)pyrazolo[1,5-a]pyrimidine-3-carboxamide] was run?
A: Its value is “++ (Cisplatin sensitization value>0.02 μM but <0.2 μM)”.

Q: `N#CCc1cnc2c(C(=O)Nc3cnccc3O[C@@H]3CCNC3)c(N)nn2c1` [I-O-87, (R)-2-amino-6-(cyanomethyl)-N-(4-(pyrrolidin-3-yloxy)pyridin-3-yl)pyrazolo[1,5-a]pyrimidine-3-carboxamide] was tested. Which “Cisplatin Sensitization Assay” value did it give?
A: The value was “++ (Cisplatin sensitization value>0.02 μM but <0.2 μM)”.

Q: How did the “Cisplatin Sensitization Assay” value turn out when `CC(C)(C)Oc1ccncc1NC(=O)c1c(N)nn2cc(F)cnc12` [I-O-88, 2-amino-N-(4-(tert-butoxy)pyridin-3-yl)-6-fluoropyrazolo[1,5-a]pyrimidine-3-carboxamide] was run?
A: The value was “+++ (Cisplatin sensitization value of <0.02 μM)”.

Q: With `CN1CCC(Oc2c(F)cncc2NC(=O)c2c(N)nn3cc(F)cnc23)CC1` [I-O-89, 2-amino-6-fluoro-N-(5-fluoro-4-((1-methylpiperidin-4-yl)oxy)pyridin-3-yl)pyrazolo[1,5-a]pyrimidine-3-carboxamide] as the molecule, how does the “Cisplatin Sensitization Assay” value read?
A: The value was “++ (Cisplatin sensitization value>0.02 μM but <0.2 μM)”.

Q: `CNc1cc(OC)c(NC(=O)c2c(N)nn3cc(F)cnc23)cn1` [I-O-90, 2-amino-6-fluoro-N-(4-methoxy-6-(methylamino)pyridin-3-yl)pyrazolo[1,5-a]pyrimidine-3-carboxamide] was tested. Which “Cisplatin Sensitization Assay” value did it give?
A: The value was “+ (Cisplatin sensitization value>0.2 μM but <5 μM)”.

Q: With `Nc1nn2cc(F)cnc2c1C(=O)Nc1cncc(F)c1OC1CCN(C2COC2)CC1` [I-O-91, 2-amino-6-fluoro-N-(5-fluoro-4-((1-(oxetan-3-yl)piperidin-4-yl)oxy)pyridin-3-yl)pyrazolo[1,5-a]pyrimidine-3-carboxamide] as the molecule, how does the “Cisplatin Sensitization Assay” value read?
A: Its value is “++ (Cisplatin sensitization value>0.02 μM but <0.2 μM)”.

Q: With `Nc1nn2cc(F)cnc2c1C(=O)Nc1cnccc1OC1COC1` [I-O-92, 2-amino-6-fluoro-N-(4-(oxetan-3-yloxy)pyridin-3-yl)pyrazolo[1,5-a]pyrimidine-3-carboxamide] as the molecule, how does the “Cisplatin Sensitization Assay” value read?
A: Its value is “+++ (Cisplatin sensitization value of <0.02 μM)”.
